Legend:
sGC α1/β1 heterodimer = biological target: T1, sGC α1/β1 heterodimer (Homo sapiens, UniProt Q02108+Q02153); assay: Cell-Based sGC Functional Assay (CASA Assay), cGMP by HTRF in CHO-K1/sGC cells; settings: for Emax: CHO-K1, percent activation relative to maximum cGMP production of Compound A (= 100%), read-out: % Act.; for EC50: cGMP production, 1 hr at 37° C., 4P fit, presence or absence of 1 μM DETA-NO not given, read-out: IP (nM) (inflection point)
T1 construct: expressed in transfected cells; host or cells: CHO-K1 (clone #7, CHO-K1/sGC)
T1 sequence (Q02108 1-690): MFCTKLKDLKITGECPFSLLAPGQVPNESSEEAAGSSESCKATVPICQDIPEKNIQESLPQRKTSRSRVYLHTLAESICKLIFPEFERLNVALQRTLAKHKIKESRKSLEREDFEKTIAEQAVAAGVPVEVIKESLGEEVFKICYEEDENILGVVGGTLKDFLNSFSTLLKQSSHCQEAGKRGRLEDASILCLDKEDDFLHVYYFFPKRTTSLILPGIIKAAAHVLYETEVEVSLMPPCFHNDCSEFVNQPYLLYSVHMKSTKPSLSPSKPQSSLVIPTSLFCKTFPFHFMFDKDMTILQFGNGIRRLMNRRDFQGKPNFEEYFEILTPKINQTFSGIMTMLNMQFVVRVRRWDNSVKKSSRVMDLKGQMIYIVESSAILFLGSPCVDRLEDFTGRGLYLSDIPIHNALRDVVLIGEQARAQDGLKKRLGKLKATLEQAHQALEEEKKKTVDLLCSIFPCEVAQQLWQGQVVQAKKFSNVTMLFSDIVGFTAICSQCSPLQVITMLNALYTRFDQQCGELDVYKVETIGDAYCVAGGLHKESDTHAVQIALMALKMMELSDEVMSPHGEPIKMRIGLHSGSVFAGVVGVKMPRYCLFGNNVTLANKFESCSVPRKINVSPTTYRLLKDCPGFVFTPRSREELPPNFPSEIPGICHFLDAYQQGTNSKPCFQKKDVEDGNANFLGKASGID
T1 sequence (Q02153 1-619): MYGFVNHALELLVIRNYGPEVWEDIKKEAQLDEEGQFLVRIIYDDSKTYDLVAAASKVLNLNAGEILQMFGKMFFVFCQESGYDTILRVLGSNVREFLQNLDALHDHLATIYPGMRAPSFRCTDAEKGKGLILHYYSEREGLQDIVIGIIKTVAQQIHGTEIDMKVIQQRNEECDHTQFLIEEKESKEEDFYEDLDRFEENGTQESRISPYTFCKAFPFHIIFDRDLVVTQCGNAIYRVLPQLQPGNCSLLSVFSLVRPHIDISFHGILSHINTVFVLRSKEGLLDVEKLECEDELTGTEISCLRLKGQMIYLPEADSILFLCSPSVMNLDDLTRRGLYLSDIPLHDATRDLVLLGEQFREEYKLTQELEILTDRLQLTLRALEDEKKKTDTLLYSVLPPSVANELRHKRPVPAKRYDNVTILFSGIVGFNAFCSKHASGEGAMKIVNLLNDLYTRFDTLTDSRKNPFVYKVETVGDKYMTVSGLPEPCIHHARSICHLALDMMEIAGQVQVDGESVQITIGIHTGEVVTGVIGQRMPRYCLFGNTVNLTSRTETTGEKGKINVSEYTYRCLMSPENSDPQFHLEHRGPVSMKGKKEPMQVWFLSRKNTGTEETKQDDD
In short: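 CHO-K1 cells stably expressing human sGC α1/β1, in EBSS buffer with 5 mM MgCl2, 10 mM HEPES, 0.05% BSA and 0.5 mM IBMX, incubated with compound (2.5% DMSO) ± 1 μM DETA-NO, 1 h, 37 °C. Intracellular cGMP read by HTRF; activity as % of reference activator maximum, IP from 4-parameter fit.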

[1] = tested on: Spontaneously hypertensive rats (SHR); assay: Acute Efficacy in Spontaneously Hypertensive Rats (SHR), telemetry blood pressure; type: in vivo, rat; settings: SHR male
Excerpt: Acute Efficacy in Spontaneously Hypertensive Rats (SHR)
Spontaneously hypertensive rats (SHR, male, Charles River) were implanted with DSI TA11PA-C40 telemetry device (Data Sciences, Inc., St. Paul, Minn.) under isoflurane or ketamine/metomidine anesthesia. The telemetry unit catheter was inserted into the descending aorta via the femoral artery and the telemetry device was implanted subcutaneously in the left flank area. Animals were allowed to recover from surgery for 14 days before the start of any studies. Blood pressure, heart rate, and activity signals from conscious, freely moving rats were recorded continuously for 30 seconds every 10 minutes. On the day prior to administration of compound, a single oral dose of vehicle (10% transcutol/20% Cremophor/70% water) was administered to all animals to establish baseline control data. The blood pressure lowering efficacy of compound (PO) or vehicle was evaluated following a single oral gavage. Data were collected as hourly averages, and changes in blood pressure were calculated by subtracting control baseline data on an hourly basis. Animals were maintained on normal diet with a 12 hour light-dark cycle.
Maximum peak decreases of systolic blood pressure (SBP) in SHR at a particular P.O. dose (mpk milligrams per kilogram) for the following representative compounds are provided. • Category A=SBP in SHRs<20 mmHg; Category B=SBP in SHRs 20-40 mmHg; • Category C=SBP in SHRs>40 mmHg

Q: With `CC1(c2ccc(F)cn2)C(=O)Nc2nc(-c3cn4ccnc4c(Cc4ccc(F)cc4)n3)nc(O)c21` (stereo not drawn) [Example 6B, 2-(8-(4-fluorobenzyl)imidazo[1,2-a]pyrazin-6-yl)-5-(5-fluoropyridin-2-yl)-4-hydroxy-5-methyl-5H-pyrrolo[2,3-d]pyrimidin-6(7H)-one] as the compound, how does the Emax (sGC α1/β1 heterodimer) read?
A: 118%

Q: What about the EC50 (sGC α1/β1 heterodimer) of the same compound?
A: 253 nM

Q: What about the “Cat. (maximum peak decrease of systolic blood pressure (SBP) in SHR)” value ([1]; single oral dose 1.0 mpk P.O.) of the same compound?
A: C (Category C=SBP in SHRs>40 mmHg)

Q: With `O=C1Nc2nc(-c3cn4ccnc4c(CCCC(F)(F)F)n3)ncc2C1(c1ccc(Cl)cn1)C1CC1` (stereo not drawn) [Example 9A, 5-(5-chloropyridin-2-yl)-5-cyclopropyl-2-(8-(4,4,4-trifluorobutyl)imidazo[1,2-a]pyrazin-6-yl)-5H-pyrrolo[2,3-d]pyrimidin-6(7H)-one] as the compound, how does the Emax (sGC α1/β1 heterodimer) read?
A: 120%

Q: And the EC50 (sGC α1/β1 heterodimer)?
A: 74 nM

Q: And the “Cat. (maximum peak decrease of systolic blood pressure (SBP) in SHR)” value ([1]; single oral dose 2.0 mpk P.O.)?
A: B (Category B=SBP in SHRs 20-40 mmHg)

Q: For `O=C1Nc2nc(-c3cn4ccnc4c(CCC(F)(F)C(F)(F)F)n3)nc(O)c2C1(c1ccc(F)cc1)C1CC1` (stereo not drawn) [Example 12B, 5-cyclopropyl-5-(4-fluorophenyl)-4-hydroxy-2-(8-(3,3,4,4,4-pentafluorobutyl)imidazo[1,2-a]pyrazin-6-yl)-5H-pyrrolo[2,3-d]pyrimidin-6(7H)-one], which Emax (sGC α1/β1 heterodimer) is on record?
A: 92%

Q: And the EC50 (sGC α1/β1 heterodimer)?
A: 525 nM

Q: And the “Cat. (maximum peak decrease of systolic blood pressure (SBP) in SHR)” value ([1]; single oral dose 3.0 mpk P.O.)?
A: A (Category A=SBP in SHRs<20 mmHg)

Q: For `CC1(c2ccc(Cl)cn2)C(=O)Nc2nc(-c3cn4ccnc4c(CCC(F)(F)C(F)(F)F)n3)nc(O)c21` (stereo not drawn) [Example 17A, 5-(5-chloropyridin-2-yl)-4-hydroxy-5-methyl-2-(8-(3,3,4,4,4-pentafluorobutyl)imidazo[1,2-a]pyrazin-6-yl)-5H-pyrrolo[2,3-d]pyrimidin-6(7H)-one], which Emax (sGC α1/β1 heterodimer) is on record?
A: 90%

Q: What about the EC50 (sGC α1/β1 heterodimer) of the same compound?
A: 294 nM

Q: What about the “Cat. (maximum peak decrease of systolic blood pressure (SBP) in SHR)” value ([1]; single oral dose 1.0 mpk P.O.) of the same compound?
A: A (Category A=SBP in SHRs<20 mmHg)

Q: Which results are given for `CCCCc1nc(-c2nc(O)c3c(n2)NC(=O)C3(c2ccc(Cl)cc2)C2CC2)cn2ccnc12` (stereo not drawn) [Example 23B, 2-(8-butylimidazo[1,2-a]pyrazin-6-yl)-5-(4-chlorophenyl)-5-cyclopropyl-4-hydroxy-5H-pyrrolo[2,3-d]pyrimidin-6(7H)-one]?
A: Emax (sGC α1/β1 heterodimer): 146%; EC50 (sGC α1/β1 heterodimer): 204 nM; Cat. (maximum peak decrease of systolic blood pressure (SBP) in SHR) ([1]; single oral dose 1.0 mpk P.O.): A (Category A=SBP in SHRs<20 mmHg)

Q: Which Emax (sGC α1/β1 heterodimer) does the source give for `O=C1Nc2nc(-c3cn4ccnc4c(CCCC(F)(F)F)n3)nc(O)c2C1(c1ccc(Cl)cc1)C1CC1` (stereo not drawn) [Example 24B, 5-(4-chlorophenyl)-5-cyclopropyl-4-hydroxy-2-(8-(4,4,4-trifluorobutyl)imidazo[1,2-a]pyrazin-6-yl)-5H-pyrrolo[2,3-d]pyrimidin-6(7H)-one] here?
A: 169%

Q: What about the EC50 (sGC α1/β1 heterodimer) of the same compound?
A: 106 nM

Q: And the “Cat. (maximum peak decrease of systolic blood pressure (SBP) in SHR)” value ([1]; single oral dose 3.0 mpk P.O.)?
A: A (Category A=SBP in SHRs<20 mmHg)

Q: For `CC1(c2ccc(Cl)cc2)C(=O)Nc2nc(-c3cn4ccnc4c(CCCC(F)(F)F)n3)nc(O)c21` (stereo not drawn) [Example 26A, 5-(4-chlorophenyl)-4-hydroxy-5-methyl-2-(8-(4,4,4-trifluorobutyl)imidazo[1,2-a]pyrazin-6-yl)-5H-pyrrolo[2,3-d]pyrimidin-6(7H)-one], which Emax (sGC α1/β1 heterodimer) is on record?
A: 90%

Q: What about the EC50 (sGC α1/β1 heterodimer) of the same compound?
A: 200 nM

Q: And the “Cat. (maximum peak decrease of systolic blood pressure (SBP) in SHR)” value ([1]; single oral dose 3.0 mpk P.O.)?
A: C (Category C=SBP in SHRs>40 mmHg)

Q: For `CC1(c2ccc(Cl)cn2)C(=O)Nc2nc(-c3cn4ccnc4c(CC4CCC4)n3)nc(O)c21` (stereo not drawn) [Example 27A, 5-(5-chloropyridin-2-yl)-2-(8-(cyclobutylmethyl)imidazo [1,2-a]pyrazin-6-yl)-4-hydroxy-5-methyl-5H-pyrrolo[2,3-d]pyrimidin-6(7H)-one], which Emax (sGC α1/β1 heterodimer) is on record?
A: 95%

Q: What about the EC50 (sGC α1/β1 heterodimer) of the same compound?
A: 645 nM

Q: What about the “Cat. (maximum peak decrease of systolic blood pressure (SBP) in SHR)” value ([1]; single oral dose 3.0 mpk P.O.) of the same compound?
A: B (Category B=SBP in SHRs 20-40 mmHg)

Q: Which results are given for `CC1(c2ccc(Cl)cn2)C(=O)Nc2nc(-c3cn4ccnc4c(CCCC(F)(F)F)n3)nc(O)c21` (stereo not drawn) [Example 28A, 5-(5-chloropyridin-2-yl)-4-hydroxy-5-methyl-2-(8-(4,4,4-trifluorobutyl)imidazo[1,2-a]pyrazin-6-yl)-5H-pyrrolo[2,3-d]pyrimidin-6(7H)-one]?
A: Emax (sGC α1/β1 heterodimer): 95%; EC50 (sGC α1/β1 heterodimer): 245 nM; Cat. (maximum peak decrease of systolic blood pressure (SBP) in SHR) ([1]; single oral dose 1.0 mpk P.O.): A (Category A=SBP in SHRs<20 mmHg)

— US10213429B2, “Imidazo-pyrazinyl derivatives useful as soluble guanylate cyclase activators” (Merck Sharp & Dohme Corp., priority 2015, dated 2019)
